The results in this text go back to patent publication US20250034165A1, “COMPOUND CONTAINING CYCLOALKYL OR HALOALKYL” (CHIA TAI TIANQING PHARMACEUTICAL GROUP CO., LTD., priority 2021, published 2025).

Usually AUC(0-inf) stands for the area under the concentration-time curve extrapolated to infinity. What is called AUC(0-t) is exposure summed from dosing to a finite time, without extrapolation to infinity. What is called bioavailability is dose-corrected exposure relative to a reference, in per cent. For orientation: Cmax means the maximum level reached in the sampled fluid or tissue. For orientation: Tmax means the time at which the peak concentration occurs.

Each structure is given as a SMILES string. Like-named read-outs stand apart in the source and are kept apart here.

Data set [1] addresses EGFR (d746-750 (d19)/T790M) (Homo sapiens (Human), UniProt P00533, DEL746-750/T790M). As to the kind of experiment: Inhibitory activity for EGFR (d746-750 (d19)/T790M) kinase. It is filed as biochemical. Particulars: ATP 5 μM. Here is the method: 1.3 Screening for Inhibitory Activity for EGFR (d746-750 (d19)/T790M) Kinase
(§1) A 50 ng/μL EGFR (d746-750/T790M, Carna) stock solution was diluted with a kinase buffer (50 mM HEPES, 10 mM MgCl2, 2 mM DTT, 1 mM EGTA, 0.01% Tween 20), and 6 μL of 1.67× working solution at 0.005 ng/μL (final concentration: 0.003 ng/μL) was added to each well. Different compounds dissolved in DMSO were added to the wells using a nanoliter pipettor, resulting in the final concentrations of the compounds of 10 nM to 0.0024 nM (4-fold gradient for 7 concentrations in total), and blank control wells (without enzyme) and negative control wells (with enzyme, plus vehicle DMSO) were set, 2 replicate wells for each concentration. After enzyme was reacted with the compound or vehicle for 30 min, 5×ATP at 25 μM (final concentration: 5 μM, Sigma) prepared with a kinase buffer was mixed with 5× substrate at 0.5 μM (final concentration: 0.1 μM, ULight-poly GT, PerkinElmer) at a ratio of 1:1 (v:v), and the mixture was added to each well at 4 μL/well. After being sealed with a film, the plate was incubated at room temperature for 2 h, and then 5 μL of 4×EDTA at 40 mM (final concentration: 10 mM) was added to each well. After the plate was incubated for 5 min at room temperature, 5 μL of 4× detection reagent at 8 nM (final concentration: 2 nM, Eu-anti-phospho-tyrosine antibody, PerkinElmer) was added to each well. After being incubated at room temperature for 1 h, the plate was read using a PerkinElmer Envision multi-mode microplate reader (excitation: 320 nm, emission: 665 nm), and IC50 was calculated by four-parameter fitting.

Data set [2] concerns PC-9 EGFR-Del19-T790M-C797S cells. As to the kind of experiment: Inhibition of proliferation of PC-9-EGFR (Del19 T790M C797S) cells, CCK-8. It is filed as cell-based. Particulars: 72 h, read-out: PC-9-EGFR (Del19 T790M C797S) cell inhibitory activity IC50. Here is the method:
PC-9 EGFR-Del19-T790M-C797S cells in the logarithmic growth phase and good conditions were taken, washed with PBS, digested with pancreatin, terminated with a complete medium, collected and added to a centrifuge tube, adjusted to a cell density of 2×10^4 cells/mL, and seeded in a 96-well plate (100 μL/well). Meanwhile, compounds were loaded using a nanoliter pipettor resulting in the final concentrations of the compounds of 1000 nM-0.06 nM, and a control was set, replicate wells for each concentration. After 72 h of incubation in the cell incubator, the assay reagent CCK-8 (manufacturer: Dojindo Laboratories, Beijing; 10 μL/well) was added. After 2 h of incubation in the cell incubator, absorbance was measured at 450 nm on a PerkinElmer Envision microplate reader, and the inhibition rate was calculated.
(§2) Inhibition rate (%)=(mean value of negative control group-mean value of experimental group)/(mean value of negative control group−mean value of blank group)×100%.
(§3) A dose-response curve was fitted by four-parameter analysis, with the logarithm of compound concentration serving as abscissa and inhibition rate serving as ordinate, such that IC50 was calculated.

Data set [3] in a line: In vivo pharmacokinetics in ICR mice. The following applies: for AUC(0-inf) / AUC(0-t) / MRT last / half-life / bioavailability / Cmax / Tmax: mouse, plasma; for AUC(0-t): read-out: AUC(0-t); for MRT last: read-out: MRT(0-t); for half-life: read-out: T½ (converted); for bioavailability: 10 mg/kg, PO vs IV; for Cmax: read-out: Cmax; for Tmax: read-out: Tmax. Here is the method: The animals to be tested (ICR mice) were fasted for 12 h before administration and food was provided 4 h after administration, and water was freely drunk before and after the experiment and during the experiment.
After intragastric administration, about 0.1 mL of blood was collected from the orbit at 0 min, 15 min, 30 min, 1 h, 2 h, 4 h, 6 h, 8 h, 10 h, and 24 h. After anticoagulation with EDTA-K2, blood samples were transferred to a centrifuge within 30 min, and centrifuged at 4000 rpm for 10 min at 4° C. to separate the plasma. All the plasma samples were collected and immediately stored at −20° C. for testing.
300 μL of acetonitrile solution containing an internal standard ([…] diazepam) was added to 20 μL of the plasma sample to be tested and a standard curve sample. The mixture was shaken and homogeneously mixed for 5 min, and centrifuged at 12,000 rpm for 10 min. 70 μL of supernatant was taken and diluted with 70 μL of ultrapure water. After being mixed well, 2 μL of the resulting sample was subjected to LC/MS/MS, and a chromatogram was recorded.

For data set [4], the target named is EGFR (d746-750/T790M/C797S) (Homo sapiens (Human), UniProt P00533, C797S/DEL746-750/T790M). As to the kind of experiment: Inhibitory activity for EGFR (d746-750/T790M/C797S) kinase. In kind it is biochemical. Particulars: ATP 5 μM; read-out: EGFR(d19/T790M/C797S) (IC50). Here is the method: 1.5 Screening for Inhibitory Activity for EGFR (d746-750/T790M/C797S) Kinase
as §1, with “(d746-750/T790M/C797S, BPS)” for “(d746-750/T790M, Carna)”, “0.05” for “0.005”, “0.03” for “0.003”

The subject of data set [5] is BAF3-EGFR (L858R/T790M/C797S) cells. In words: Inhibition of proliferation of BAF3-EGFR (L858R/T790M/C797S) cells, CCK-8. It is filed as cell-based. Particulars: Ba/F3 EGFR, 72 h, read-out: BAF3(EGFR T790M L858R C797S) cell inhibitory activity IC50. Here is the method:
A flask of EGFR (L858R/T790M/C797S) cells in the logarithmic growth phase and good conditions was taken, and the cells were collected and added to a centrifuge tube. 20 μL of cells were taken and counted, and the required number of cells (mL) was pipetted and centrifuged at 1200 rpm for 3 min. The supernatant was discarded, and an appropriate amount of plating medium (RPMI medium+10% FBS) was added to adjust the cell density to 1.5×10^5 cells/mL. The cells were seeded on a 96-well plate at 100 μL/well using a multi-channel pipette and cultured in a cell incubator at 37° C., 5% CO2 with saturated humidity. After overnight incubation, compounds were loaded using a nanoliter pipettor, 2 duplicate wells were set for each concentration, and cells without compound added were used as negative controls.
as §2, §3

Sequence of EGFR (d746-750/T790M/C797S) (P00533 other isoform, or with tags, fused parts or gaps T790M/C797S/del 1-694/del 746-750 limits assumed): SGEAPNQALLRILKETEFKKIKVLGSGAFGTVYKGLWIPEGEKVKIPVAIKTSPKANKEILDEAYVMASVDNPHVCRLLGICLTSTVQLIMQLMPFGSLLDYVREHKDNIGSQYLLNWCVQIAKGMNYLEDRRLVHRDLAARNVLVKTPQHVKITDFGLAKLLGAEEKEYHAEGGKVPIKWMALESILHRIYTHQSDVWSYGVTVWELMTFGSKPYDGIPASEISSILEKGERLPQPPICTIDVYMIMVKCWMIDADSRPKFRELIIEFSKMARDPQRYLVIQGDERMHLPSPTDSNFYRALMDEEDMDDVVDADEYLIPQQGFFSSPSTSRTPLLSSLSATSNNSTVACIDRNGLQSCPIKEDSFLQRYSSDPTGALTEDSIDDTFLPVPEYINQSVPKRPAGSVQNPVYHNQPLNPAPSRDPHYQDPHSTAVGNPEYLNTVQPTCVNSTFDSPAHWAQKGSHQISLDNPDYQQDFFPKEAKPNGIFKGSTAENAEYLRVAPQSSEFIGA
Sequence of EGFR (d746-750 (d19)/T790M) (P00533 other isoform, or with tags, fused parts or gaps T790M/del 1-668/del 746-750 limits assumed): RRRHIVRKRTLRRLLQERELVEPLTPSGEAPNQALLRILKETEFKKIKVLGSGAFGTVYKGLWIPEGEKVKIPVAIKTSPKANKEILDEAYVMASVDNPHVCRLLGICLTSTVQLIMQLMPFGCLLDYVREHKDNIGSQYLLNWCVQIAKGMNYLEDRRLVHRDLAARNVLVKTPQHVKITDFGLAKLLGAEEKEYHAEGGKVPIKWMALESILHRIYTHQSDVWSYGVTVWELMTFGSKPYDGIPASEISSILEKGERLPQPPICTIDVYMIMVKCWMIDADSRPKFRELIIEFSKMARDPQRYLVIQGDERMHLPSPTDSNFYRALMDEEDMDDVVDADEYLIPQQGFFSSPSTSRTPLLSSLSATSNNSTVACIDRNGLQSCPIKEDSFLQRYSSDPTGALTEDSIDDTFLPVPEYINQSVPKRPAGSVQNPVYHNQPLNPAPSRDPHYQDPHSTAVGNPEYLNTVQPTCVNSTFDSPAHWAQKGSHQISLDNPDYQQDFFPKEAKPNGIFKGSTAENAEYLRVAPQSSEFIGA

In turn, `Cc1cc2cc(n1)-c1cnn(C)c1OCCC[C@@H](C1CC1)CN1/C(=N/C2=O)Nc2ccc(N(C)C3CCN(C)CC3)cc21` [Example 117] returned an IC50 in data set [1] of 120 pM. For the same compound, in data set [2], the IC50 is less than 50000 pM. In data set [3] (IV), this compound had a CLz of 58.2 mL/min/kg. In addition, in data set [3] (1 mg/kg, IV), the AUC(0-inf) was 286 ng·h/mL, the AUC(0-t) amounted to 284 ng·h/mL, the MRT last was 3.3 h and the half-life was 2.18 h. In addition, in data set [3], the bioavailability stood at 29.1%. Further, in data set [3] (PO, 10 mg/kg intragastric), the AUC(0-inf) was 848 ng·h/mL, the AUC(0-t) amounted to 826 ng·h/mL, the Cmax stood at 77.1 ng/mL and the MRT last amounted to 6.79 h. For the same compound, in data set [3] (PO, 10 mg/kg intragastric), the time to peak (Tmax) stood at 6 h and the half-life was 4.17 h.
For `[2H]C([2H])([2H])N(CCN(C)C)c1ccc2c(c1)N1C[C@H](C3CC3)CCCOc3c(cnn3C)-c3cc(cc(C)n3)C(=O)/N=C/1N2` [Example 116], the IC50 in data set [2] was less than 50000 pM.
On to `[2H]C([2H])([2H])N(C[C@@H](C)Nc1ccc2c(c1)N/C1=N\C(=O)c3cc(C)nc(c3)-c3cnn(C)c3OCCC[C@@H](C3CC3)CN12)C([2H])([2H])[2H]` [Example 146], for which the IC50 in data set [4] is 74 pM; in data set [5], less than 5000 pM; in data set [2], less than 50000 pM.
On to `Cc1cc2cc(n1)-c1cnn(C)c1OCCC[C@@H](C1CC1)CN1/C(=N/C2=O)Nc2cc(N[C@H](C)CCN3CCCCC3)ccc21` [Example 139], for which the IC50 in data set [4] was 76 pM; in data set [5] it was less than 5000 pM; in data set [2] it was less than 50000 pM.
Consider `Cc1cc2cc(n1)-c1cnn(C)c1OCCC[C@@H](C1CC1)CN1/C(=N/C2=O)Nc2ccc(N[C@H](C)CCN3CCCCC3)cc21` [Example 143], for which the IC50 is 79 pM in data set [4], less than 5000 pM in data set [5] and less than 50000 pM in data set [2].
Consider `Cc1cc2cc(n1)-c1cnn(C)c1OCCC[C@@H](C1CC1)CN1/C(=N/C2=O)Nc2cc(N[C@H]3CC[C@H](O)CC3)ccc21` [Example 151], for which the IC50 in data set [4] was 120 pM; in data set [5], less than 5000 pM; in data set [2], less than 50000 pM.
Turning to `[2H]C([2H])([2H])N(C[C@H](C)Nc1ccc2c(c1)N1C[C@H](C3CC3)CCCOc3c(cnn3C)-c3cc(cc(C)n3)C(=O)/N=C/1N2)C([2H])([2H])[2H]` [Example 123], the IC50 was 100 pM in data set [4], less than 5000 pM in data set [5] and less than 50000 pM in data set [2].
Consider `CNCCCCNc1ccc2c(c1)N/C1=N\C(=O)c3cc(C)nc(c3)-c3cnn(C)c3OCCC[C@@H](C3CC3)CN12` [Example 52], for which the IC50 was 21 pM in data set [1], 28 pM in data set [4] and less than 5000 pM in data set [5].
On to `Cc1cc2cc(n1)-c1cnn(C)c1OCCC[C@@H](C1CC1)CN1/C(=N/C2=O)Nc2ccc(N(C)[C@@H](C)CN(C)C)cc21` [Example 85], for which the IC50 in data set [2] is less than 50000 pM.
With `Cc1cc2cc(n1)-c1cnn(C)c1OCCC[C@@H](C1CC1)CN1/C(=N/C2=O)Nc2ccc(N[C@@H](C)CCN3CCCCC3)cc21` [Example 144], the IC50 was 68 pM in data set [4], less than 5000 pM in data set [5] and less than 50000 pM in data set [2].
`Cc1cc2cc(n1)-c1cnn(C)c1OCCC[C@@H](C1CC1)CN1/C(=N/C2=O)Nc2ccc(N[C@H]3C[C@H](N(C)C)C3)cc21` [Example 128] had an IC50 in data set [1] of 130 pM. For the same compound, the IC50 in data set [2] was less than 50000 pM. The compound also displayed a CLz in data set [3] (IV) of 75.3 mL/min/kg. In addition, in data set [3] (1 mg/kg, IV), the area under the curve AUC(0-inf) came to 221 ng·h/mL, the exposure AUC(0-t) was found to be 214 ng·h/mL, the MRT last was determined as 1.65 h and the half-life is 2.17 h. Moreover, the bioavailability in data set [3] was found to be 30.5%. In addition, in data set [3] (PO, 10 mg/kg intragastric), the area under the curve AUC(0-inf) was determined as 662 ng·h/mL, the area under the curve AUC(0-t) stood at 654 ng·h/mL, the Cmax was determined as 57.8 ng/mL and the MRT last is 6.81 h. Also, in data set [3] (PO, 10 mg/kg intragastric), the Tmax was 6 h and the half-life is 3.46 h.
For the compound `Cc1cc2cc(n1)-c1cnn(C)c1OCCC[C@@H](C1CC1)CN1/C(=N/C2=O)Nc2ccc(NC3CC(N(C)C)C3)cc21` (some centres unmarked) [Example 98], the results for the IC50 in data set [1], in data set [5] and in data set [2] were 87 pM, less than 5000 pM and less than 50000 pM, respectively.
For `Cc1cc2cc(n1)-c1cnn(C)c1OCCC[C@@H](C1CC1)CN1/C(=N/C2=O)Nc2ccc(N[C@H]3CC[C@H](N(C)C)C3)cc21` [Example 136], the IC50 in data set [1] is 150 pM; in data set [2] it was less than 50000 pM.
With `Cc1cc2cc(n1)-c1cnn(C)c1OCCC[C@@H](C1CC1)CN1/C(=N/C2=O)Nc2cc(NCCCCN)ccc21` [Example 53], the IC50 was 9.8 pM in data set [1], 13 pM in data set [4] and less than 5000 pM in data set [5].
As for `Cc1cc2cc(n1)-c1cnn(C)c1OCCC[C@@H](C1CC1)CN1/C(=N/C2=O)Nc2ccc(N[C@H](C)CN3CCCCC3)cc21` [Example 141], the IC50 in data set [4] is 72 pM; in data set [5], less than 5000 pM; in data set [2], less than 50000 pM.
